Assay results from patent US4461773A, “P-Oxooxazolidinylbenzene compounds as antibacterial agents” (E. I. DuPont de Nemours and Company, priority 1984, dated 1984).
In brackets after ≈: the same amount, converted by molar mass. Read-outs that look alike come from different tables or passages of the source.

Experiments:
S. epidermidis = assay: In vitro broth microdilution minimal inhibitory concentration, S. epidermidis (Table I); assay type: cell-based; settings: Staphylococcus epidermidis, read-out: MIC (minimal inhibitory concentration), S. epidermidis
Source text: (§1) A list is presented in Table I of analogs which exert an in-vitro antibacterial effect.

E. Coli [1] = assay: In vitro broth microdilution minimal inhibitory concentration, E. Coli (Table I); assay type: cell-based; settings: Escherichia coli, read-out: MIC (minimal inhibitory concentration), E. Coli
Source text: as §1

Staphylococcus aureus = assay: In vivo efficacy in mice infected intraperitoneally with Staphylococcus aureus (Table III); settings: 4 h, read-out: ED50, S. auerus
Protocol: (§2) In-vivo efficacy determinations were performed by inoculating mice interaperitoneally with cultures of the infecting organism diluted to produce 90-100% mortality in control animals within seven days. The diluents used were trypticase soy broth for E. coli, Proteus sp. and Psuedomonas aeruginosa and 5% hog gastric mucin for Staphylococcus aureus infections. The compounds, dissolved or suspended in 0.25% methocel.cndot.H2 O were administered orally by intubation at the time of infection and again at four hours post-infection. Mortality was recorded daily until test termination and the 50 percent effective dose. ED50, was calculated by the Reed-Muench method (Reed, L. G. and Muench, H., "A simple method of estimating fifty percent end points." American Journal of Hygiene, 27, 1938, 493-497).

E. coli [2] = assay: In vivo efficacy in mice infected intraperitoneally with E. coli (Table III); settings: Escherichia coli, 4 h, read-out: ED50, E. Coli
Protocol: as §2

[3] = broth microdilution, Mueller-Hinton broth, 24 hour
[4] = mice, intraperitoneal infection, 5% hog gastric mucin, oral dosing at infection and four hours post-infection, Reed-Muench
[5] = mice, intraperitoneal infection, trypticase soy broth, oral dosing at infection and four hours post-infection, Reed-Muench

Row | Structure (SMILES) | MIC (S. epidermidis; [3]) | MIC (E. Coli [1]; [3]) | ED50 (Staphylococcus aureus; [4]) | ED50 (E. coli [2]; [5]) | ED50 (Staphylococcus aureus; po) | MIC (S. epidermidis; 24 h) | MIC (E. Coli [1]; 24 h) | ED50 (E. coli [2]; po)
1 | CN(C)S(=O)(=O)c1ccc(N2CC(CO)OC2=O)cc1 (racemic) [Example 3a, dl-N,N-dimethyl-4-[5-(hydroxymethyl)-2-oxooxazolidin-3-yl]benzenesulfonamide] | 50 µg/mL (≈ 166 µM) | > 200 µg/mL |  |  |  |  |  | 
2 | CNS(=O)(=O)c1ccc(N2CC(CO)OC2=O)cc1 (racemic) [Example 3b, dl-N-methyl-4-[5-(hydroxymethyl)-2-oxooxazolidin-3-yl]benzenesulfonamide] | 50 µg/mL (≈ 175 µM) | > 200 µg/mL |  |  |  |  |  | 
3 | [N-]=[N+]=NS(=O)(=O)c1ccc(N2CC(CO)OC2=O)cc1 (racemic) [Example 4, dl-4-[5-(Hydroxymethyl)-2-oxooxazolidin-3-yl]benzenesulfonyl Azide] | 4.2 µg/mL (≈ 14.1 µM) | 12.5 µg/mL (≈ 41.9 µM) | 26 mg/kg | 17.9 mg/kg |  |  |  | 
4 | O=C1OC(CO)CN1c1ccc(S(=O)(=O)N(Cl)Cl)cc1 (racemic) [Example 11, dl-N,N-Dichloro-4-[5-(hydroxymethyl)-2-oxooxazolidin-3-yl]benzenesulfonamide] | > 100 µg/mL | > 100 µg/mL | 36.3 mg/kg | 53.7 mg/kg |  |  |  | 
5 | O=C1OC(CO)CN1c1ccc(S(=O)(=O)NCl)cc1.[Na] (racemic) [Example 13, dl-N-Chloro-4-[5-(hydroxymethyl)-2-oxooxazolidin-3-yl]benzenesulfonamide, sodium salt] |  |  |  |  | 47.4 mg/kg | 100 µg/mL | 200 µg/mL | 43.6 mg/kg
6 | CS(C)=NS(=O)(=O)c1ccc(N2CC(CO)OC2=O)cc1 (racemic) [Example 15, dl-N-{4-[5-(Hydroxymethyl)-2-oxooxazolidin-3-yl]-phenylsulfonyl}-S,S-dimethylsulfilimine] | > 100 µg/mL | > 100 µg/mL | 48.5 mg/kg | 118 mg/kg |  |  |  | 
7 | NNS(=O)(=O)c1ccc(N2CC(CO)OC2=O)cc1 (racemic) [Example 16, dl-3-[4-Hydrazinosulfonyl)phenyl]-5-(hydroxymethyl)-2-oxazolidin-2-one] | > 100 µg/mL | > 100 µg/mL | 119 mg/kg | > 360 mg/kg |  |  |  | 
8 | CC(=O)OCC1CN(c2ccc(S(N)(=O)=O)cc2)C(=O)O1 (racemic) [Example 17, dl-4-[5-(Acetoxymethyl)-2-oxooxazolidin-3-yl]benzenesulfonamide] | > 50 µg/mL | > 50 µg/mL | 47.1 mg/kg | 48.9 mg/kg |  |  |  | 
9 | CCC(=O)OCC1CN(c2ccc(S(N)(=O)=O)cc2)C(=O)O1 (racemic) [Example 19, dl-4-[5-(Propionyloxymethyl)-2-oxooxazolidin-3-yl]-benzenesulfonamide] | 25 µg/mL (≈ 76.1 µM) | > 100 µg/mL | 166 mg/kg | > 360 mg/kg |  |  |  | 
10 | NS(=O)(=O)c1ccc(N2CC(COC(=O)CCC(=O)O)OC2=O)cc1 (racemic) [Example 20, dl-Butanedioic acid, Mono Ester with 4-[5-(Hydroxymethyl)-2-oxooxazolidin-3-yl]benzenesulfonamide] | > 100 µg/mL | > 100 µg/mL | 85.3 mg/kg | 77.3 mg/kg |  |  |  | 
11 | O=C(NS(=O)(=O)c1ccc(N2CC(CO)OC2=O)cc1)C(Cl)Cl (racemic) [Example 34, dl-2,2-Dichloro-N-[4-[5-(Hydroxymethyl)-2-oxooxazolidin-3-yl]phenylsulfonyl]acetamide] | > 200 µg/mL | > 200 µg/mL | 18.3 mg/kg |  |  |  |  | 
12 | O=C1OC(CO)CN1c1ccc(S(=O)(=O)NC(=O)C(Cl)(Cl)Cl)cc1 (racemic) [Example 35, dl-2,2,2-Trichloro-N-[4-[5-(hyroxymethyl)-2-oxooxazolidin-3-yl]phenylsulfonyl]acetamide] | > 200 µg/mL | > 200 µg/mL | 58.5 mg/kg |  |  |  |  | 
13 | CC(=NO)c1ccc(N2CC(CO)OC2=O)cc1 (racemic) [Example 37, dl-5-Hydroxymethyl-3-[4-(1-hydroxyiminoethyl)phenyl]-2-oxazolidinone] | > 50 µg/mL | > 50 µg/mL | 68 mg/kg |  |  |  |  | 
14 | CON=C(C)c1ccc(N2CC(CO)OC2=O)cc1 (racemic) [Example 38, dl-5-Hydroxymethyl-3-[4-(1-methoxyiminoethyl)phenyl]-2-oxazolidinone] |  |  | 76.6 mg/kg |  |  |  |  | 
15 | CC(C)c1ccc(N2CC(CO)OC2=O)cc1 (racemic) [Example 39] |  |  | 116 mg/kg |  |  |  |  | 
16 | C=CCOCC1CN(c2ccc(C(C)C)cc2)C(=O)O1 (racemic) [Example 40] |  |  | 79.8 mg/kg |  |  |  |  | 
17 | CC(=O)c1ccc(N2CC(CO)OC2=O)cc1 (racemic) [Example 41] |  |  | 35.8 mg/kg | 97.6 mg/kg |  |  |  | 
18 | N#Cc1ccc(N2CC(CO)OC2=O)cc1 (racemic) [Example 42] |  |  | 66.4 mg/kg |  |  |  |  | 
19 | O=C1OC(CO)CN1c1ccc([N+](=O)[O-])cc1 (racemic) [Example 43] |  |  | 40 mg/kg | > 360 mg/kg |  |  |  | 
20 | NS(=O)(=O)c1ccc(N2CC(CO)OC2=O)cc1 (stereo not shown) [Example 1, 4-[5-(Hydroxymethyl)-2-oxooxazolidin-3-yl]benzenesulfonamide] | 100 µg/mL (≈ 367 µM) | 100 µg/mL (≈ 367 µM) | 40.2 mg/kg | 19.7 mg/kg |  |  |  | 
21 | [N-]=[N+]=NS(=O)(=O)c1ccc(N2C[C@@H](CO)OC2=O)cc1 [Example 5, l-4-[5-(Hydroxymethyl)-2-oxooxazolidin-3-yl]benzenesulfonyl Azide] | 2.4 µg/mL (≈ 8.05 µM) | 7.9 µg/mL (≈ 26.5 µM) | 24.9 mg/kg | 14.9 mg/kg |  |  |  | 
22 | CNS(=O)(=O)c1ccc(N2C[C@@H](CO)OC2=O)cc1 [Example 6, l-4-[5-(Hydroxymethyl)-2-oxooxazolidin-3-yl]-N-methylbenzenesulfonamide] | 62.5 µg/mL (≈ 218 µM) | ≥ 200 µg/mL | 15.4 mg/kg | 39.7 mg/kg |  |  |  | 
23 | O=C1O[C@H](CO)CN1c1ccc(S(=O)(=O)NC2CC2)cc1 [Example 9, l-4-[5-(Hydroxymethyl)-2-oxooxazolidin-3-yl]-N-cyclopropylbenzenesulfonamide] | > 100 µg/mL | > 100 µg/mL | 89.2 mg/kg |  |  |  |  | 
24 | CONS(=O)(=O)c1ccc(N2C[C@@H](CO)OC2=O)cc1 [Example 10, l-4-[5-(Hydroxymethyl)-2-oxooxazolidin-3-yl]-N-methoxybenzenesulfonamide] | 100 µg/mL (≈ 331 µM) | > 100 µg/mL | 52 mg/kg |  |  |  |  | 
25 | COC[C@@H]1CN(c2ccc(SC)cc2)C(=O)O1 [Example 31, l-5-(Methoxymethyl)-3-[4-(methylthio)phenyl]-2-oxazolidinone] | > 200 µg/mL | > 200 µg/mL | 54.6 mg/kg |  |  |  |  | 
26 | COC[C@@H]1CN(c2ccc(S(C)(=O)=O)cc2)C(=O)O1 [Example 32, l-5-(Methoxymethyl)-3-[4-(methylsulfonyl)phenyl]-2-oxazolidinone] | 100 µg/mL (≈ 350 µM) | > 200 µg/mL | 5.1 mg/kg | 11.8 mg/kg |  |  |  | 
27 | COC[C@@H]1CN(c2ccc(S(N)(=O)=O)cc2)C(=O)O1 [Example 33, l-4-[5-(Methoxymethyl)-2-oxooxazolidin-3-yl]benzenesulfonamide] | > 200 µg/mL | > 200 µg/mL | 59.6 mg/kg |  |  |  |  | 
28 | CC(=O)NS(=O)(=O)c1ccc(N2CC(CO)OC2=O)cc1 (stereo not shown) [Example 36, N-[4-[5-(Hydroxymethyl)-2-oxooxazolidin-3-yl]phenylsulfonyl]acetamide] | > 100 µg/mL | > 100 µg/mL | > 120 mg/kg | 56.9 mg/kg |  |  |  | 
